In patent US20240383908A1, “SYNTHESIS AND APPLICATION OF PHOSPHATASE DEGRADER” (HINOVA PHARMACEUTICALS INC., priority 2021, published 2024):

What follows are compounds tested against T1, SHP2 protein (Homo sapiens, UniProt Q06124) (assay: Degradation activity on SHP2 protein in MV-411 cells (Western blot, DC50)). Settings: MV411 cells, 24 hours, read-out: Degradation activity for differenct cell lines MV411 (DC50).
T1 sequence (Q06124 1-593): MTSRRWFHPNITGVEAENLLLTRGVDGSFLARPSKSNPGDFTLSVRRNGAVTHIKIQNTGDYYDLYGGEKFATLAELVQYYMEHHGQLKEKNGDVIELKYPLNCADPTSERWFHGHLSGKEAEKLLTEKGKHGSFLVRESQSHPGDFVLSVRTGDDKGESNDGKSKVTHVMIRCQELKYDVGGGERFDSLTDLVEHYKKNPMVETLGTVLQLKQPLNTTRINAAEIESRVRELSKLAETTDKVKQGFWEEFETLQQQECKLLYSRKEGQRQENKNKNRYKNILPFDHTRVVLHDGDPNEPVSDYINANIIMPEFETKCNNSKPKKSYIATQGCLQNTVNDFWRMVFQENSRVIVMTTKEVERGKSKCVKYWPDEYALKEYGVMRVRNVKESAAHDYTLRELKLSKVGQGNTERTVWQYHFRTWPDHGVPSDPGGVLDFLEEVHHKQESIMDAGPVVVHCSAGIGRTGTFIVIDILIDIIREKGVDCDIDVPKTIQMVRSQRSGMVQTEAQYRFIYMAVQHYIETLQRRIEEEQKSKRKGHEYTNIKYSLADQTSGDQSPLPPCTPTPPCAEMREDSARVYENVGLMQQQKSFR
Format: cell-based
Parameters: endogenous in cells
Method in brief: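 Western blot of SHP2 (GAPDH loading control, 30 μg protein/lane) in lysates of MV-411 cells exposed 24 h to final compound concentrations of 100, 10, 3, 1, 0.3 and 0.1 nM (0.1% DMSO). Degradation relative to DMSO set at 100%; DC50 derived by curve fitting.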

SMILES | DC50
Cc1ncsc1-c1ccc([C@H](C)NC(=O)[C@@H]2C[C@@H](O)CN2C(=O)[C@@H](NC(=O)/C=C/C(=O)N2CC3(CN(CCCCCCCC(=O)Nc4cccc(Sc5cnc(N6CCC(C)(N)CC6)cn5)c4)C3)C2)C(C)(C)C)cc1 [Compound 115] | > 1000 nM
Cc1ncsc1-c1ccc([C@H](C)NC(=O)[C@@H]2C[C@@H](O)CN2C(=O)[C@@H](NC(=O)/C=C/C(=O)N2CCC3(CN(CCCCCCC(=O)Nc4cccc(Sc5cnc(N6CCC(C)(N)CC6)cn5)c4)C3)C2)C(C)(C)C)cc1 [Compound 116] | > 1000 nM
CC1(N)CCN(c2cnc(Sc3cccc(NC(=O)CCCCCCN4CC5(CCN(C(=O)/C=C/C(=O)NCc6ccc7c(c6)CN(C6CCC(=O)NC6=O)C7=O)C5)C4)c3)cn2)CC1 (stereo not drawn) [Compound 117] | > 1000 nM
Cc1ncsc1-c1ccc([C@H](C)NC(=O)[C@@H]2C[C@@H](O)CN2C(=O)[C@@H](NC(=O)c2ccc(N3CC4CCC(C3)N4CCCCCCCCC(=O)Nc3cccc(Sc4cnc(N5CCC(C)(N)CC5)cn4)c3)nn2)C(C)(C)C)cc1 [Compound 118] | 100 to 1000 nM
Cc1ncsc1-c1ccc([C@H](C)NC(=O)[C@@H]2C[C@@H](O)CN2C(=O)[C@@H](NC(=O)c2ccc(N3CCC4(CN(CCCCCOCC(=O)Nc5cccc(Sc6cnc(N7CCC8(CC7)CO[C@@H](C)[C@H]8N)cn6)c5)C4)C3)nn2)C(C)(C)C)cc1 [Compound 120] | < 100 nM
C[C@@H]1OCC2(CCN(c3cnc(Sc4cccc(NC(=O)COCCCCCN5CC6(CCN(c7ccc(C(=O)NCc8ccc9c(c8)CN(C8CCC(=O)NC8=O)C9=O)nn7)C6)C5)c4)cn3)CC2)[C@@H]1N (stereo partly drawn) [Compound 121] | < 100 nM
Cc1ncsc1-c1ccc([C@H](C)NC(=O)[C@@H]2C[C@@H](O)CN2C(=O)[C@@H](NC(=O)c2ccc(N3CCC4(CN(CCCCCOCC(=O)Nc5ccc(Sc6cnc(N7CCC(N)(CF)CC7)cn6)cc5)C4)C3)nn2)C(C)(C)C)cc1 [Compound 122] | < 100 nM
NC1(CF)CCN(c2cnc(Sc3ccc(NC(=O)COCCCCCN4CC5(CCN(c6ccc(C(=O)NCc7ccc8c(c7)CN(C7CCC(=O)NC7=O)C8=O)nn6)C5)C4)cc3)cn2)CC1 (stereo not drawn) [Compound 123] | 100 to 1000 nM
CC1(N)CCN(c2cnc(Sc3cccc(NC(=O)COCCCCCN4CC5(CCN(c6ccc(C(=O)NCc7ccc8c(c7)CN(C7CCC(=O)NC7=O)C8=O)nn6)C5)C4)c3)cn2)CC1 (stereo not drawn) [Compound 124] | < 100 nM
CC1(N)CCN(c2cnc(Sc3cccc(NC(=O)CCCCCCC(=O)N4CC5(CN(C(=O)/C=C/C(=O)NCc6ccc7c(c6)CN(C6CCC(=O)NC6=O)C7=O)C5)C4)c3)cn2)CC1 (stereo not drawn) [Compound 125] | > 1000 nM
Cc1ncsc1-c1ccc([C@H](C)NC(=O)[C@@H]2C[C@@H](O)CN2C(=O)[C@@H](NC(=O)[C@@H]2C[C@H]2C(=O)N2CCC3(CN(CCCCCCC(=O)Nc4cccc(Sc5cnc(N6CCC(C)(N)CC6)cn5)c4)C3)C2)C(C)(C)C)cc1 [Compound 126] | 100 to 1000 nM
CC1(N)CCN(c2cnc(Sc3cccc(NC(=O)CCCCCCN4CC5(CCN(C(=O)[C@@H]6C[C@H]6C(=O)NCc6ccc7c(c6)CN(C6CCC(=O)NC6=O)C7=O)C5)C4)c3)cn2)CC1 (stereo partly drawn) [Compound 127] | 100 to 1000 nM
CC1(N)CCN(c2cnc(Sc3cccc(NC(=O)CCCCCCCN4CC5(CC(n6cc(C(=O)NCc7ccc8c(c7)CN(C7CCC(=O)NC7=O)C8=O)cn6)C5)C4)c3)cn2)CC1 (stereo not drawn) [Compound 128] | < 100 nM
NC1(CF)CCN(c2cnc(Sc3ccc(NC(=O)CCCCN4CC5(CCN(c6ncc(C(=O)NCc7ccc8c(c7)CN(C7CCC(=O)NC7=O)C8=O)cn6)C5)C4)cc3)cn2)CC1 (stereo not drawn) [Compound 129] | > 1000 nM
Cc1ncsc1-c1ccc([C@H](C)NC(=O)[C@@H]2C[C@@H](O)CN2C(=O)[C@@H](NC(=O)[C@@H]2C[C@H]2C(=O)N2CCC3(CN(C(=O)CCCCCC(=O)Nc4cccc(Sc5cnc(N6CCC(C)(N)CC6)cn5)c4)C3)C2)C(C)(C)C)cc1 [Compound 130] | < 100 nM
CC1(N)CCN(c2cnc(Sc3cccc(NC(=O)CCCCCC(=O)N4CC5(CCN(C(=O)[C@@H]6C[C@H]6C(=O)NCc6ccc7c(c6)CN(C6CCC(=O)NC6=O)C7=O)C5)C4)c3)cn2)CC1 (stereo partly drawn) [Compound 131] | 100 to 1000 nM
C[C@@H]1OCC2(CCN(c3cnc(Sc4cccc(NC(=O)CCN5CC6(CCN(c7ccc(COc8cccc9c8CN(C8CCC(=O)NC8=O)C9=O)nn7)C6)C5)c4)cn3)CC2)[C@@H]1N (stereo partly drawn) [Compound 132] | < 100 nM
CC1(N)CCN(c2cnc(Sc3cccc(NC(=O)CCN4CC5(CCN(c6ccc(COc7cccc8c7CN(C7CCC(=O)NC7=O)C8=O)nn6)C5)C4)c3)cn2)CC1 (stereo not drawn) [Compound 133] | > 1000 nM

SMILES | DC50
CC1(N)CCN(c2cnc(Sc3cccc(NC(=O)CCCCCCC(=O)N4CC5(CCN(c6ccc(C(=O)NCc7ccc8c(c7)CN(C7CCC(=O)NC7=O)C8=O)nn6)C5)C4)c3)cn2)CC1 (stereo not drawn) [Compound 134] | 100 to 1000 nM
NC1(CF)CCN(c2cnc(Sc3cccc(NC(=O)CCCCCCCO[C@H]4CCN(c5ccc(C(=O)NCc6ccc7c(c6)CN(C6CCC(=O)NC6=O)C7=O)nn5)C4)c3)cn2)CC1 (stereo partly drawn) [Compound 135] | < 100 nM
CN[C@H](C)C(=O)N[C@@H](C(=O)N1C[C@@H](NC(=O)c2cnc(N3CCC4(CN(CCCCC(=O)Nc5cccc(Sc6cnc(N7CCC(N)(CF)CC7)cn6)c5)C4)C3)nc2)C[C@@H]1C(=O)Nc1c(F)cccc1F)C(C)(C)C [Compound 136] | > 1000 nM
NC1(CF)CCN(c2cnc(Sc3cccc(NC(=O)CCCCN4CC5(CCN(c6ccc(C(=O)NCc7ccc8c(c7)CN(C7CCC(=O)NC7=O)C8=O)nn6)C5)C4)c3)cn2)CC1 (stereo not drawn) [Compound 137] | > 1000 nM
CN[C@H](C)C(=O)N[C@@H](C(=O)N1C[C@@H](NC(=O)c2ccc(N3CC(C)N(CCCCCCCCC(=O)Nc4cccc(Sc5cnc(N6CCC(C)(N)CC6)cn5)c4)C(C)C3)nn2)C[C@@H]1C(=O)Nc1c(F)cccc1F)C(C)(C)C (stereo partly drawn) [Compound 139] | > 1000 nM
CN[C@H](C)C(=O)N[C@@H](C(=O)N1C[C@@H](NC(=O)c2ccc(N3CC4CCC(C3)N4CCCCCCCCC(=O)Nc3cccc(Sc4cnc(N5CCC(N)C(F)C5)cn4)c3)nn2)C[C@@H]1C(=O)Nc1c(F)cccc1F)C(C)(C)C (stereo partly drawn) [Compound 142] | > 1000 nM
NC1CCN(c2cnc(Sc3cccc(NC(=O)CCCCCCCCN4C5CCC4CN(c4ccc(C(=O)NCc6ccc7c(c6)CN(C6CCC(=O)NC6=O)C7=O)nn4)C5)c3)cn2)CC1F (stereo not drawn) [Compound 143] | < 100 nM
Cc1ncsc1-c1ccc([C@H](C)NC(=O)[C@@H]2C[C@@H](O)CN2C(=O)[C@@H](NC(=O)c2ccc(N3CCC4(CN(CCCCC(=O)Nc5cccc(Sc6cnc(N7CCC(C)(N)CC7)cn6)c5)C4)C3)nn2)C(C)(C)C)cc1 [Compound 144] | 100 to 1000 nM
CC1(N)CCN(c2cnc(Sc3cccc(NC(=O)CCCCN4CC5(CCN(c6ccc(C(=O)NCc7ccc8c(c7)CN(C7CCC(=O)NC7=O)C8=O)nn6)C5)C4)c3)cn2)CC1 (stereo not drawn) [Compound 145] | < 100 nM
CC1(N)CCN(c2cnc(Sc3cccc(NC(=O)CCCCCCCCN4C5CCC4CN(c4ccc(C(=O)N6CCN(c7ccc8c(c7)C(=O)N(C7CCC(=O)NC7=O)C8=O)CC6)nn4)C5)c3)cn2)CC1 (stereo not drawn) [Compound 148] | < 100 nM
CC1(N)CCN(c2cnc(Sc3cccc(NC(=O)CCCCCCCCN4C5CCC4CN(c4ccc(CN6CCN(c7ccc8c(c7)C(=O)N(C7CCC(=O)NC7=O)C8=O)CC6)nn4)C5)c3)cn2)CC1 (stereo not drawn) [Compound 149] | < 100 nM
CC1(N)CCN(c2cnc(Sc3cccc(NC(=O)/C=C/C(=O)N4CC5(CCN(CCCCCCC(=O)NCc6ccc7c(c6)CN(C6CCC(=O)NC6=O)C7=O)C5)C4)c3)cn2)CC1 (stereo not drawn) [Compound 150] | > 1000 nM
CC1(N)CCN(c2cnc(Sc3cccc(NC(=O)/C=C/C(=O)N4CCC5(CN(CCCCCCC(=O)NCc6ccc7c(c6)CN(C6CCC(=O)NC6=O)C7=O)C5)C4)c3)cn2)CC1 (stereo not drawn) [Compound 151] | > 1000 nM
CN(Cc1ccc2c(c1)CN(C1CCC(=O)NC1=O)C2=O)C(=O)c1ccc(N2CCC3(CN(CCCCCCC(=O)Nc4cccc(Sc5cnc(N6CCC(C)(N)CC6)cn5)c4)C3)C2)nn1 (stereo not drawn) [Compound 152] | < 100 nM
CC1(N)CCN(c2cnc(Sc3cccc(NC(=O)CCCCCCCOC4CCN(c5ccc(C(=O)NCc6ccc7c(c6)CN(C6CCC(=O)NC6=O)C7=O)nn5)CC4(F)F)c3)cn2)CC1 (stereo not drawn) [Compound 153] | < 100 nM
CC1(N)CCN(c2cnc(Sc3cccc(NC(=O)CCCCCCN4CC5(CCN(C6CCC(C(=O)NCc7ccc8c(c7)CN(C7CCC(=O)NC7=O)C8=O)CC6)C5)C4)c3)cn2)CC1 (stereo not drawn) [Compound 158, 4-(2-(7-((3-((5-(4-amino-4-methylpyridin-1-yl)pyrazin-2-yl)thio)phenyl)amino)-7-oxoheptyl)-2,6-diazaspiro[3.4]octan6-yl)-N-((2-(2,6-dioxopiperidin-3-yl)-1-oxoisoindol-5-yl)methyl)cyclohexane-1-formamide] | 100 to 1000 nM
CCC1(N)CCN(c2cnc(Sc3cccc(NC(=O)CCCCCCN4CC5(CCN(c6ccc(C(=O)N(C)Cc7ccc8c(c7)CN(C7CCC(=O)NC7=O)C8=O)nn6)C5)C4)c3)cn2)CC1 (stereo not drawn) [Compound 162] | < 100 nM
CN(Cc1ccc2c(c1)CN(C1CCC(=O)NC1=O)C2=O)C(=O)c1ccc(N2CC[C@@H](OCCCCCCCC(=O)Nc3cccc(Sc4cnc(N5CCC(C)(N)CC5)cn4)c3)[C@@H](F)C2)nn1 (stereo partly drawn) [Compound 163] | < 100 nM
